Laboratory results reported in patent USRE45173E1, “Inhibitors of CYP 17” (Novartis AG, priority 2009, dated 2014).
Where a name gives a salt, the structure may show the parent alone. Read-outs that look alike come from different tables or passages of the source.

Key:
rat CYP17 lyase = rat CYP17 lyase (Rattus norvegicus (Rat), UniProt P11715); assay: rat CYP 17 Lyase model, rat testes microsomes as the source; type: biochemical; details: for inhibition at 0.1 µM: 100 nM compound, read-out: rCYP17 Lyase % Inh @ 100 nM; for IC50: rat testes microsomes, substrate 0.5 μM, read-out: Lyase IC 50 nM Human/Rat (Rat)
Experimental: For routine screening, the assay was set up with 16 μg of enzyme in 50 μL reaction volume. 17α-hydroxy pregnenolone [21-3H] was added to a final concentration of 0.25 μM. NADPH is used at a final concentration of 4.2 mM. Total reaction volume was made up to 50 μL with 50 mM Phosphate buffer pH 7.5. The reaction mixture was incubated at room temperature for 90 minutes with gentle shaking. The reaction was stopped by the addition of 100 μL of buffer. 500 μL of 5% freshly prepared activated charcoal was added to the solution and mixed well by vortexing. The samples were centrifuged at 17568×g for 5 minutes. (14000 rpm). The supernatant was carefully transferred to fresh tube and 1.3 mL of scintillation fluid was added, mixed by vortexing.
The radioactivity was measured in a 1450 MicroBeta TriLux™ scintillation counter from Wallac-Perkin Elmer®, USA. The measurements were carried out in 2.0 mL Eppendorforf™ tubes. Each tube was counted for 1 minute. The amount of tritiated acetic acid released is proportional to the lyase activity. Percent lyase activity in presence of inhibitor was calculated using the formula given below.
[formula] • Sample: Enzyme reaction in presence of inhibitor. • Positive control: Enzyme reaction without inhibitor but containing DMSO at 1% final concentration. • Blank-Contains all reagents except enzyme. % Inhibition=100%−% Lyase activity
For IC50 determination, the % inhibition was plotted as a function of inhibitor concentration. The data was fitted to sigmoidal equation using Graphpad Prism® software IV to generate IC50 values.
For the rat CYP 17 Lyase Model:
The same procedure described above was used but using rat testes microsomes as the source and with a substrate concentration of 0.5 μM.

[1] = biological target: recombinant human CYP17 enzyme (Homo sapiens (Human), UniProt P05093); assay: Cytochrome P450, 17-20 lyase (CYP17-lyase) assay, tritiated acetic acid release from 17-α-hydroxy pregnenolone [21-3H]; type: biochemical; details: human CYP17, substrate 0.25 μM
Method in brief: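 Membranes of cells expressing human CYP17 incubated 90 min at room temperature with [21-3H]17α-hydroxypregnenolone and 4.2 mM NADPH in 50 mM phosphate pH 7.5. Released tritiated acetic acid separated from steroids by charcoal and counted by scintillation; IC50 from sigmoidal fit of % inhibition.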

[2] = read-out: Lyase IC 50 Human/Rat (Human)
[3] = read-out: Lyase IC 50 nM Human/Rat (Human)

Sequence of recombinant human CYP17 enzyme (P05093 whole entry): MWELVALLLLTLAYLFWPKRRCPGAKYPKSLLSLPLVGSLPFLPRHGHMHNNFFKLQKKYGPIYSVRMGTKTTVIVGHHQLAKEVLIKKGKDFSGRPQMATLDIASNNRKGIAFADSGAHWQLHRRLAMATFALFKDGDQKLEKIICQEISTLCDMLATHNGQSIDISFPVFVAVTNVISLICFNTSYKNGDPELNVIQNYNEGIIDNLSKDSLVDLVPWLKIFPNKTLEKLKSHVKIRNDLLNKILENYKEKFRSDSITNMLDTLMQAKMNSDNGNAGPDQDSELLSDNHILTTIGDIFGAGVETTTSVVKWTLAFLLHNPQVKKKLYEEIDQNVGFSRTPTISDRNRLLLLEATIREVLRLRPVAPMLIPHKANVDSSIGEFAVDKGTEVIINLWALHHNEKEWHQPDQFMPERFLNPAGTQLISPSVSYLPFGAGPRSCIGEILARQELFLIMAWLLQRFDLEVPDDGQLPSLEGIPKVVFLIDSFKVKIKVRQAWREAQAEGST
Sequence of rat CYP17 lyase (P11715 whole entry): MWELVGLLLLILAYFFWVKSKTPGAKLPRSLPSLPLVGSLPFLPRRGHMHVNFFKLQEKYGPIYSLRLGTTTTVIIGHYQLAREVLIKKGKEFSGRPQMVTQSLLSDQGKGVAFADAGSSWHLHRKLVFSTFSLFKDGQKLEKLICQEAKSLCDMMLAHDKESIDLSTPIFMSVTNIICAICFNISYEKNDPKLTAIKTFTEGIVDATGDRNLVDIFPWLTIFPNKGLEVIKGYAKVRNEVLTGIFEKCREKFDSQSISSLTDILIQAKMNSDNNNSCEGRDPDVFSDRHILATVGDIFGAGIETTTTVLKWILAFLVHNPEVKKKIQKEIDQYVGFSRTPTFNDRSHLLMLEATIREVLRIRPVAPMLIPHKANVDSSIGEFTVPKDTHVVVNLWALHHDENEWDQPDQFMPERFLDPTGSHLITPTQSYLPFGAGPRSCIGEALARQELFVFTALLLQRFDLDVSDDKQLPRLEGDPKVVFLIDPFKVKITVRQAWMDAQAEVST

Compound | IC50 [1, 3] [nM] | other results
Cc1c(N2CCN(c3cccnc3)C2=O)sc2ccc(F)cc12 [Example 6A, 1-(5-Fluoro-3-methyl-benzo[b]thiophen-2-yl)-3-pyridin-3-yl-imidazolidin-2-one] |  | inhibition at 0.1 µM (rat CYP17 lyase): 51%; IC50 (rat CYP17 lyase): 157 nM
O=C1N(c2cccnc2)CCN1c1ccc2ncccc2c1 [Example 8A, 1-Pyridin-3-yl-3-quinolin-6-yl-imidazolidin-2-one] |  | inhibition at 0.1 µM (rat CYP17 lyase): 48%
O=C1N(c2cccnc2)CCN1c1ccc2sccc2c1 [Example 7A, 1-Benzo[b]thiophen-5-yl-3-pyridin-3-yl-imidazolidin-2-one] |  | inhibition at 0.1 µM (rat CYP17 lyase): 87%; IC50 (rat CYP17 lyase): 16 nM
Cc1cc(Cl)nc2ccc(N3CCN(c4cccnc4)C3=O)cc12 [Example 11A, 1-(2-Chloro-4-methyl-quinolin-6-yl)-3-pyridin-3-yl-imidazolidin-2-one] |  | inhibition at 0.1 µM (rat CYP17 lyase): 59%; IC50 (rat CYP17 lyase): 97 nM
CCn1c(=O)cc(C)c2cc(N3CCN(c4cnccc4C)C3=O)ccc21 [Example 20A, 1-Ethyl-4-methyl-6-[3-(4-methyl-pyridin-3-yl)-2-oxo-imidazolidin-1-yl]-1-1H-quinolin-2-one] |  | inhibition at 0.1 µM (rat CYP17 lyase): 69%; IC50 (rat CYP17 lyase): 56 nM
COc1ccc2cc(N3CCN(c4cnccc4C)C3=O)ccc2c1 [Example 25A, 1-(6-Methoxy-naphthalen-2-yl)-3-(4-methyl-pyridin-3-yl)-imidazolidin-2-one] |  | inhibition at 0.1 µM (rat CYP17 lyase): 89%
CC(O)c1ccncc1N1CCN(c2ccc3ncsc3c2)C1=O (centres unmarked) [Example 195A, 1-Benzothiazol-6-yl-3-[4-(1-hydroxyethyl)-pyridin-3-yl]-imidazolidin-2-one] |  | inhibition at 0.1 µM (rat CYP17 lyase): 8%
NC(=O)c1ccncc1N1CCN(c2ccc3ncsc3c2)C1=O [Example 185A, 3-(3-Benzothiazol-6-yl-2-oxo-imidazolidin-1-yl)-isonicotinamide] |  | IC50 [1, 2]: > 10000 nM
Cc1ccncc1N1CCN(c2ccc3[nH]nnc3c2)C1=O [Example 141A, 1-(1H-Benzotriazol-5-yl)-3-(4-methyl-pyridin-3-yl)-imidazolidin-2-one Hydrochloride] | 13 | 
Cc1ccncc1N1CCN(c2csc3ccnc(Cl)c23)C1=O [Example 99A, 1-(4-Chloro-thieno[3,2-c]pyridin-3-yl)-3-(4-methyl-pyridin-3-yl)-imidazolidin-2-one] | 22 | 
Cc1ccncc1N1CCN(c2ccc3c(c2)CCO3)C1=O [Example 51A, 1-(2,3-Dihydro-benzofuran-5-yl)-3-(4-methyl-pyridin-3-yl)-imidazolidin-2-one] | 14 | 
Cc1cccc(N2CCN(c3cnccc3C(F)(F)F)C2=O)c1 [Example 131A, 1-m-Tolyl-3-(4-trifluoromethyl-pyridin-3-yl)-imidazolidin-2-one] | 103 | 
COc1ccc(N2CCN(c3cnccc3C)C2=O)cc1F [Example 53A, 1-(3-Fluoro-4-methoxy-phenyl)-3-(4-methyl-pyridin-3-yl)-imidazolidin-2-one] | 136 | 
Cc1ccncc1N1CCN(c2ccc3c(C)noc3c2)C1=O [Example 111A, 1-(3-Methyl-benzo[d]isoxazol-6-yl)-3-(4-methyl-pyridin-3-yl)-imidazolidin-2-one] | 106 | 
Cc1ccncc1N1CCN(c2ccc(C#N)c(Cl)c2)C1=O [Example 112A, 2-Chloro-4-[3-(4-methyl-pyridin-3-yl)-2-oxo-imidazolidin-1-yl]-benzonitrile] | 28 | 
Cc1ccncc1N1CCN(c2cc3c(C)nccc3s2)C1=O [Example 194A] | 21 | 
Cc1ccncc1N1CCCN(c2ccc3ccccc3c2)C1=O [Example 130A, 1-(4-Methyl-pyridin-3-yl)-3-naphthalen-2-yl-tetrahydro-pyrimidin-2-one] |  | IC50 [1, 2]: > 10000 nM

Compound | IC50 [1, 3] [nM] | other results
Cc1nc2cc(N3CCN(c4cnccc4C)C3=O)ccc2o1 [Example 93A, 1-(2-Methyl-benzooxazol-5-yl)-3-(4-methyl-pyridin-3-yl)-imidazolidin-2-one] |  | IC50 [1, 2]: > 10000 nM
Cc1ccncc1N1CCN(c2ccnc(C(F)(F)F)c2)C1=O [Example 148A, 1-(4-Methyl-pyridin-3-yl)-3-(2-trifluoromethyl-pyridin-4-yl)-imidazolidin-2-one] | 25 | 
Cc1ccncc1N1CCN(c2ccc3cc[nH]c3c2)C1=O [Example 144A, 1-(1H-Indol-6-yl)-3-(4-methyl-pyridin-3-yl)-imidazolidin-2-one] | 174 | 
Cc1cc(N2CCN(c3cnccc3C)C2=O)ccn1 [Example 100A, 1-(4-Methyl-pyridin-3-yl)-3-(2-methyl-pyridin-4-yl)-imidazolidin-2-one] | 46 | 
Cc1ccncc1N1CC(C)(C)N(c2ccc3ncsc3c2)C1=O [Example 163A, 3-Benzothiazol-6-yl-4,4-dimethyl-1-(4-methyl-pyridin-3-yl)-imidazolidin-2-one] |  | IC50 [1, 2]: > 10000 nM
O=C1N(c2cnc3[nH]ccc3c2)CCN1c1ccc2ncsc2c1 [Example 187A, 1-Benzothiazol-6-yl-3-(1H-pyrrolo[2,3-b]pyridin-5-yl)-imidazolidin-2-one] |  | IC50 [1, 2]: > 10000 nM
Cc1ccncc1N1C(=O)N(c2ccc3ncsc3c2)CC1(C)C [Example 165A, 1-Benzothiazol-6-yl-4,4-dimethyl-3-(4-methyl-pyridin-3-yl)-imidazolidin-2-one] | 1150 | 
CC1(C)CN(c2ccc3ncsc3c2)C(=O)N1c1cccnc1 [Example 164A, 1-Benzothiazol-6-yl-4,4-dimethyl-3-pyridin-3-yl-imidazolidin-2-one] | 70 | 
Cc1cc(NCc2ccncc2N2CCN(c3ccc4ncsc4c3)C2=O)n[nH]1 [Example 182A, 1-Benzothiazol-6-yl-3-{4-[(5-methyl-1H-pyrazol-3-ylamino)-methyl]-pyridin-3-yl}-imidazolidin-2-one] | 27 | 
Cc1nc2ccc(N3CCN(c4cnccc4C)C3=O)cc2s1 [Example 105A, 1-(2-Methyl-benzothiazol-6-yl)-3-(4-methyl-pyridin-3-yl)-imidazolidin-2-one] | 1470 | 
Cc1cn2cc(N3CCN(c4cnccc4C)C3=O)ccc2n1 [Example 104A] | 1990 | 
Cc1ccncc1N1CCN(c2ccc3nn(C)cc3c2)C1=O [Example 132A, 1-(2-Methyl-2H-indazol-5-yl)-3-(4-methyl-pyridin-3-yl)-imidazolidin-2-one] |  | IC50 [1, 2]: > 10000 nM
Cc1ccncc1N1CCN(c2ccc(F)c(C(F)F)c2)C1=O [Example 91A, 1-(3-Difluoromethyl-4-fluoro-phenyl)-3-(4-methyl-pyridin-3-yl)-imidazolidin-2-one] | 4.3 | 
Cc1ccncc1N1CCN(c2ccc(C#N)c(F)c2)C1=O [Example 140A, 2-Fluoro-4-[3-(4-methyl-pyridin-3-yl)-2-oxo-imidazolidin-1-yl]-benzonitrile] | 97 | 
Cc1ccncc1-n1ccn(-c2ccc(F)c(C(F)F)c2)c1=O [Example 91B, 1-(3-Difluoromethyl-4-fluoro-phenyl)-3-(4-methyl-pyridin-3-yl)-1,3-dihydro-imidazol-2-one] | 22 | 
O=C1N(c2ccc3ncsc3c2)CCN1c1cnccc1CN1CCOCC1 [Example 177A, 1-benzothiazol-6-yl-3-(4-morpholin-4-ylmethyl-pyridin-3-yl)-imidazolidin-2-one] | 32 | 
Cc1ccncc1N1CCN(c2ccc3c(=O)[nH][nH]c3c2)C1=O [Example 135A, 6-[3-(4-Methyl-pyridin-3-yl)-2-oxo-imidazolidin-1-yl]-1,2-dihydro-indazol-3-one] | 15.9 | 
